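All cell lines were grown in 96-well plates and treated with compound for 48 hours. The concentration for 50% growth inhibition is given as GI50. TGI denotes the concentration required for complete inhibition of growth.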
Columns and labels:
Test in all cases: NCI tumour cell line growth inhibition, 48 h
BT-549 breast = tested on: BT-549 breast
DU-145 prostate = tested on: DU-145 prostate
HCT-116 colon = tested on: HCT-116 colon
HOP-62 NSCLC = tested on: HOP-62 NSCLC
HOP-92 NSCLC = tested on: HOP-92 NSCLC
HS 578T breast = tested on: HS 578T breast
MDA-MB-231 breast = tested on: MDA-MB-231 breast
MOLT-4 leukemia = tested on: MOLT-4 leukemia
NCI-H460 lung = tested on: NCI-H460 lung
OVCAR-3 ovarian = tested on: OVCAR-3 ovarian
RPMI-8226 leukemia = tested on: RPMI-8226 leukemia
SF-268 CNS = tested on: SF-268 CNS
SF-539 CNS = tested on: SF-539 CNS
SK-MEL-2 melanoma = tested on: SK-MEL-2 melanoma
SK-OV-3 ovarian = tested on: SK-OV-3 ovarian
SN12C renal = tested on: SN12C renal
SNB-19 CNS = tested on: SNB-19 CNS
SNB-75 CNS = tested on: SNB-75 CNS
SW-620 colon = tested on: SW-620 colon

SMILES | TGI (BT-549 breast) | TGI (DU-145 prostate) | TGI (HCT-116 colon) | TGI (HOP-62 NSCLC) | TGI (HOP-92 NSCLC) | TGI (HS 578T breast) | TGI (MDA-MB-231 breast) | TGI (MOLT-4 leukemia) | TGI (NCI-H460 lung) | TGI (OVCAR-3 ovarian) | TGI (RPMI-8226 leukemia) | TGI (SF-268 CNS) | TGI (SF-539 CNS) | TGI (SK-MEL-2 melanoma) | TGI (SK-OV-3 ovarian) | TGI (SN12C renal) | TGI (SNB-19 CNS) | TGI (SNB-75 CNS) | TGI (SW-620 colon) | GI50 (MOLT-4 leukemia)
O=C(/C=C/c1ccc(OCc2ccccc2)cc1)NCc1ccc(C(=O)NCCc2c[nH]c3ccccc23)cc1 | > 100 µM | > 100 µM | > 100 µM | 15.6 µM | 61.1 µM | 29.9 µM | 61.1 µM | > 100 µM | > 100 µM | > 100 µM | > 100 µM | 52.4 µM | 11.2 µM | > 82.6 µM | 44.4 µM | > 100 µM | 29.9 µM | 38.1 µM | > 100 µM | –
Cc1ccc(/C=C2/N=C(N/N=C\C(O)C(O)C(O)CO)NC2=O)cc1 (stereo unspecified) | > 100 µM | > 100 µM | > 100 µM | > 100 µM | > 100 µM | > 100 µM | > 100 µM | > 100 µM | > 100 µM | > 100 µM | > 100 µM | > 100 µM | > 100 µM | > 100 µM | > 100 µM | > 100 µM | > 100 µM | > 100 µM | > 100 µM | 46.2 µM
CC(C)c1ccc(C2NC(=S)NC3=C2c2ccccc2C3=O)cc1 (stereo unspecified) | 31.6 µM | 31.7 µM | > 58.4 µM | > 57.1 µM | 48.3 µM | 42.1 µM | 31 µM | > 65 µM | > 67.3 µM | > 56.7 µM | > 62.4 µM | > 52.4 µM | 37.8 µM | 41.7 µM | > 61.7 µM | > 61.4 µM | > 55.2 µM | 36.7 µM | > 78.2 µM | –
CN(C)CCNCc1ccc2c(-c3ccccc3)nc3cc(Cl)c(Cl)cc3n12 | 30.9 µM | 23.3 µM | 16.3 µM | 27.4 µM | 28.3 µM | 47.6 µM | 25.2 µM | 21.6 µM | 23.9 µM | 35.9 µM | 36.8 µM | 29.7 µM | 14.4 µM | 20.6 µM | 17.4 µM | 24.2 µM | 28.9 µM | 20.2 µM | 28.3 µM | –
O=C1c2c(Br)sc(Br)c2[C@@H](Cl)[C@H]1Cl | 39.3 µM | 35.9 µM | 48.8 µM | 35.5 µM | 42.5 µM | > 100 µM | 36.8 µM | > 100 µM | 40.9 µM | 30 µM | 54.6 µM | 39.8 µM | 27.1 µM | 37.7 µM | 36.3 µM | 36.7 µM | 38.5 µM | 34.1 µM | > 100 µM | –
O=C(O)CCO/N=C1/C(c2c(O)[nH]c3ccccc23)=Nc2ccccc21 | > 100 µM | 75.1 µM | 34.8 µM | > 100 µM | 96.9 µM | > 100 µM | > 100 µM | 77.2 µM | > 100 µM | 43.9 µM | > 100 µM | > 100 µM | > 100 µM | 37.7 µM | 21.1 µM | > 100 µM | > 100 µM | 53.5 µM | > 100 µM | –
COc1ccc(C2C(C#N)=C(S)N(C3OC(COC(C)=O)C(OC(C)=O)C(OC(C)=O)C3OC(C)=O)C(C)=C2C(C)=O)cc1 (stereo unspecified) | > 100 µM | > 100 µM | > 100 µM | > 100 µM | > 100 µM | > 100 µM | > 100 µM | > 100 µM | > 100 µM | > 100 µM | > 100 µM | > 100 µM | > 100 µM | > 100 µM | > 100 µM | > 100 µM | > 100 µM | > 100 µM | > 100 µM | –
CC(C)(C)OC(=O)N1CC(CCl)c2ccc(O)cc21 (stereo unspecified) | 4.61 µM | 5.73 µM | 12.1 µM | 12.9 µM | 6.87 µM | 7.41 µM | 11.4 µM | 8.13 µM | 10.2 µM | 5.83 µM | 7.96 µM | 4.26 µM | 4.96 µM | 3.2 µM | 11.8 µM | 11.5 µM | 10.6 µM | 3.11 µM | 11 µM | –
Cc1cccc(NC(=O)O/N=C(\Cl)C(C)C)c1 | 12.2 µM | 33 µM | 11.4 µM | 34.5 µM | 3.14 µM | 63.7 µM | 33.4 µM | 5.63 µM | 33.2 µM | 11.4 µM | 10.5 µM | 38 µM | 20.3 µM | 32.6 µM | 31.7 µM | 10.3 µM | 38.9 µM | 33.1 µM | 3.6 µM | –
O=C1C[C@H](COCc2ccccc2)NC(=O)C[C@H](COCc2ccccc2)NC(=O)C[C@H](COCc2ccccc2)N1 | > 100 µM | > 100 µM | > 100 µM | > 100 µM | 35.4 µM | > 100 µM | 85.2 µM | > 100 µM | > 100 µM | > 100 µM | > 100 µM | > 100 µM | 75.1 µM | > 100 µM | 57.3 µM | > 100 µM | > 100 µM | 8.27 µM | > 100 µM | –

Source: PubChem BioAssay (NCI)
